Laboratory results taken from ChEMBL document CHEMBL5096175, “An insight into the medicinal attributes of berberine derivatives: A review” (Bioorg Med Chem, 2021).
pIC50: −log10 of the molar value. Each block holds one compound with its values, some of them ahead of it.

Columns and labels:
[1] = test system: HL-60; test: Antiproliferative activity against human HL-60 cells incubated for 48 hrs by MTT assay; assay type: functional, cell-based; conditions: HL-60, 48 h
[2] = test system: HL-60; test: Potency index, ratio of berberine IC50 to test compound IC50 for antiproliferative activity against human HL-60 cells incubated for 48 hrs by MTT assay; assay type: functional
[3] = test system: Coxsackievirus B2; test: Antiviral activity against Human Coxsackievirus B2 infected in African green monkey Vero cells assessed as reduction in virus-induced cytopathic effect incubated for 48 hrs by microscopic analysis; assay type: functional, organism-based; conditions: Enterovirus B
[4] = test system: Coxsackievirus B3; test: Antiviral activity against Coxsackievirus B3 infected in African green monkey Vero cells assessed as reduction in virus-induced cytopathic effect incubated for 48 hrs by microscopic analysis; assay type: functional, organism-based; conditions: Enterovirus B
[5] = test system: Coxsackievirus B4; test: Antiviral activity against Coxsackievirus B4 infected in African green monkey Vero cells assessed as reduction in virus-induced cytopathic effect incubated for 48 hrs by microscopic analysis; assay type: functional, organism-based; conditions: Enterovirus B
[6] = test system: Coxsackievirus B5; test: Antiviral activity against Coxsackievirus B5 infected in African green monkey Vero cells assessed as reduction in virus-induced cytopathic effect incubated for 48 hrs by microscopic analysis; assay type: functional, organism-based; conditions: Enterovirus B
[7] = test system: Coxsackievirus B6; test: Antiviral activity against Human Coxsackievirus B6 infected in African green monkey Vero cells assessed as reduction in virus-induced cytopathic effect incubated for 48 hrs by microscopic analysis; assay type: functional, organism-based; conditions: Enterovirus B
[8] = test system: RAW264.7; test: Antiinflammatory activity in LPS-induced mouse RAW264.7 cells assessed as reduction in COX-2 level at 25 uM pretreated for 1 hr followed by LPS stimulation and measured after 49 hrs by ELISA relative to control; assay type: functional; set-up: scale not given: the % may be the effect or the level left; conditions: time 50 hrs
[9] = test system: RAW264.7; test: Antiinflammatory activity in LPS-induced mouse RAW264.7 cells assessed as reduction in […] level at 25 uM pretreated for 1 hr followed by LPS stimulation and measured after 49 hrs by ELISA relative to control; assay type: functional; set-up: scale not given: the % may be the effect or the level left; conditions: time 50 hrs
[10] = Induction of glucose-stimulated insulin secretion in rat INS1 cells assessed as increase in insulin secretion at 25 uM pretreated for 48 hrs followed by glucose stimulation and measured after 1 hr by ELISA; assay type: functional
[11] = Acute toxicity in ip dosed NIH mouse expressing aP2-SREBP-1c assessed as lethal dose measured for 14 days by modified karber's method; assay type: organism-based; conditions: in vivo, time 14 day
[12] = Cytotoxicity against mouse 3T3-L1 assessed as reduction in cell viability measured after 48 hrs by CCK-8 assay; assay type: toxicity, cell-based; conditions: 3T3-L1 cells

pIC50 [1]: 6.15
Structure (SMILES): COc1ccc2cc3[n+](cc2c1OCCCBr)CCc1cc2c(cc1-3)OCO2.[Cl-]
Ratio IC50 [2]: 30

pIC50 [3]: 5.51
pIC50 [4]: 5.51
pIC50 [5]: 5.51
pIC50 [6]: 5.51
pIC50 [7]: 5.51
Structure (SMILES): COc1cc2c(cc1OCCOCCN)CC[n+]1cc3c(OC)c(OC)ccc3cc1-2

Structure (SMILES): COc1ccc2cc3[n+](cc2c1OCc1nc(C)nc(N(C)C)n1)CCc1cc2c(cc1-3)OCO2.[Cl-]
Activity [8]: 25.42%
Activity [9]: 36.41%
Activity [10]: 143%

Structure (SMILES): C=CCc1ccc(O)c(-c2cc(CC=C)ccc2OCCOc2c(OC)ccc3cc4[n+](cc23)CCc2cc3c(cc2-4)OCO3)c1.[Cl-]
LD50 at 336 h [11]: 279 mg/kg
IC50 at 48 h [12]: 11.5 µM
